Five molecules from patent US9056835B2, “LPA2 receptor-specific benzoic acid derivatives” (University of Tennessee Research Foundation, priority 2012, dated 2015) can be followed below.

Bounds are passed on as bounds.

Holding throughout (format): cell-based
For one experiment, the target named is T1, LPA3 (Homo sapiens, UniProt Q9UBY5).
T1 construct: expressed in transfected cells
T1 sequence (Q9UBY5 1-353): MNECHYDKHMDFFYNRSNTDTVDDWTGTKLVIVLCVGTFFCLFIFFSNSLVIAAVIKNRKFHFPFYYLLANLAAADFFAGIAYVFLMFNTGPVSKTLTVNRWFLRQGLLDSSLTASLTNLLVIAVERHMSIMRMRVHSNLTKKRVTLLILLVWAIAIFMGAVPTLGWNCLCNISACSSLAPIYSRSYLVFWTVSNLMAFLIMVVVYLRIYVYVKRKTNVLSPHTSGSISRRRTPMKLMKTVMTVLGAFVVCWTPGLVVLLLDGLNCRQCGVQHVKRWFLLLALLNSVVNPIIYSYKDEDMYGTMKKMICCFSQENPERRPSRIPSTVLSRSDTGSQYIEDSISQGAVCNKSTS
Put plainly: LPA receptor-mediated Ca2+ mobilization assay, LPA3. To be noted: for LPA3 Imax (%): inhibition by 10 μM compound of ~EC75 LPA 18:1 Ca2+ response; for inhibition of LPA3 Ca2+ response: 10 μM, ~EC75 LPA 18:1. The protocol:
(§1) Similarity searches were performed separately using each fingerprint to quantitate similarity. Hits meeting the 80% similarity threshold from each search were ranked based on the Tanimoto coefficient measure of similarity to a target molecule NSC12404, and the top 75 unique hits from each fingerprint search were selected for further analysis. The 225 compounds selected for further analysis were clustered based on Tanimoto coefficients calculated using Molecular ACCess System-key fingerprints (MACCS keys) and evaluated using the diversity subset function implemented in MOE. This selected a diverse subset of 27 compounds for biological evaluation by choosing the middle compounds in each cluster. These 27 compounds were tested in Ca^2+ mobilization assays at a concentration of 10 μM using stable cell lines individually expressing LPA2 and also in vector-transfected control cells. Hits activating LPA2 were further tested using cells expressing the other established and putative LPA GPCRs. […] They arbitrarily selected GRI977143 for further characterization in cell-based assays.
(§2) J Biol Chem (2009) 284(25): 17304-17319). […] The cells were loaded with Fura-2-acetoxymethyl esther (Fura-2/AM) in Krebs buffer containing 0.01% pluronic acid for 30 min and rinsed with Krebs buffer before measuring Ca^2+ mobilization. The ratio of peak emissions at 510 nm after 2 min of ligand addition was determined for excitation wavelengths of 340 nm/380 nm. All samples were run in quadruplicate. […] The half maximally effective concentration (EC50), and inhibitory constant (Ki) values were calculated by fitting a sigmoid function to dose-response data points using KaleidaGraph software (version 4.1, Synergy Software; […]).
(§3) Mouse embryonic fibroblast (MEF) cells were isolated from E13.5 LPA1&2 double knockout (DKO) embryos. MEFs were transduced with empty vector or LPA2-containing lentiviruses and selected with 1.5 μg/ml puromycin. Cells were maintained in Dulbecco's modified Eagle medium (DMEM) supplemented with 10% (V/V) fetal bovine serum (FBS), 2 mM L-glutamine, 100 U/mL penicillin, and 100 μg/mL streptomycin. Serum-free medium contained 0.1% (W/V) BSA in DMEM. The rat intestinal epithelial cell line 6 (IEC-6) was obtained from the American Type Culture Collection (Rockville, Md.) at passage 13; passages 16-21 were used in all experiments. IEC-6 cells were maintained in a humidified 37° C. incubator in an atmosphere of 90% air and 10% CO2. Growth medium consisted of DMEM supplemented with 5% heat inactivated FBS, 10 μg/mL insulin, and 50 μg/mL gentamycin. The composition of the serum-starvation medium was the same as that of the full growth medium except that it contained no FBS. The McArdle rat hepatoma cell line (RH7777) stably expressing LPA2 receptors was a gift from Dr. Fumikazu Okajima (Gunma University, Maebashi, Japan). RH7777 cells stably expressing LPA1 or LPA3 receptors were generated in-house and had been characterized earlier. Wild type and LPA receptor (LPAR) stably transfected RH7777 cells were grown in DMEM supplemented with 10% FBS and 2 mM L-glutamine in the presence of 250 μg/ml G418. Chinese hamster ovary (CHO) cells stably expressing either vector or LPA4 receptor were a kind gift from Dr. Takao Shimizu (Tokyo University; Tokyo, Japan). Cells were cultured in Ham's F12 medium containing 10% FBS, 2 mM L-glutamine, and 350 μg/ml G418. Rat neuroblastoma cells (B103) were transduced with the lentivirus harboring wild type of FLAG-LPA5 and selected with puromycin to establish the stable cell lines. The stable cells were maintained in DMEM supplemented with 10% FBS and 0.4 μg/ml puromycin. GPR87- and P2Y10-expressing CHO cells and vector-transfected control cells were a gift from Dr. Norihisha Fujita (Ritsumeikan University; Shiga, Japan).

The next experiment addresses T2, LPA4 (Homo sapiens, UniProt Q99677).
T2 construct: expressed in transfected cells
Nature of the experiment: LPA receptor-mediated Ca2+ mobilization assay, LPA4. To be noted: for EC50: agonist, Ca2+ mobilization. The protocol: as §1, §2, §3
(In general: A change in cytosolic calcium serves as a functional read-out for many receptors and channels.)

The target in another experiment is T3, LPA5 (Homo sapiens, UniProt Q9H1C0).
T3 construct: FLAG (N); expressed in transfected cells; host or cells: B103 rat neuroblastoma, lentiviral transduction, puromycin selection
T3 sequence (Q9H1C0 whole entry, species assumed): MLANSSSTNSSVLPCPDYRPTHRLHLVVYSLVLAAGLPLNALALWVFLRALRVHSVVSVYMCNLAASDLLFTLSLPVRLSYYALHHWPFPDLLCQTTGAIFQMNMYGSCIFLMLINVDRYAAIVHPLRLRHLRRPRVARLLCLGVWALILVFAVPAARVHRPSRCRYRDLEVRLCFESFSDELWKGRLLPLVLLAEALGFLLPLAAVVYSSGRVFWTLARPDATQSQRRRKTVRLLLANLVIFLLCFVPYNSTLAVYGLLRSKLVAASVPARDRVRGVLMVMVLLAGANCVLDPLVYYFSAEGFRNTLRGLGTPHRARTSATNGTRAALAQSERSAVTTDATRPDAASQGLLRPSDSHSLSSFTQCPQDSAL
Nature of the experiment: LPA receptor-mediated Ca2+ mobilization assay, LPA5. To be noted: agonist. Here is the method: as §1, §2
Mouse embryonic fibroblast (MEF) cells were isolated from E13.5 LPA1&2 double knockout (DKO) embryos. MEFs were transduced with empty vector or LPA2-containing lentiviruses and selected with 1.5 μg/ml puromycin. Cells were maintained in Dulbecco's modified Eagle medium (DMEM) supplemented with 10% (V/V) fetal bovine serum (FBS), 2 mM L-glutamine, 100 U/mL penicillin, and 100 μg/mL streptomycin. Serum-free medium contained 0.1% (W/V) BSA in DMEM. The rat intestinal epithelial cell line 6 (IEC-6) was obtained from the American Type Culture Collection (Rockville, Md.) at passage 13; passages 16-21 were used in all experiments. IEC-6 cells were maintained in a humidified 37° C. incubator in an atmosphere of 90% air and 10% CO2. Growth medium consisted of DMEM supplemented with 5% heat inactivated FBS, 10 μg/mL insulin, and 50 μg/mL gentamycin. The composition of the serum-starvation medium was the same as that of the full growth medium except that it contained no FBS. […]

T2 sequence (Q99677 whole entry, species assumed): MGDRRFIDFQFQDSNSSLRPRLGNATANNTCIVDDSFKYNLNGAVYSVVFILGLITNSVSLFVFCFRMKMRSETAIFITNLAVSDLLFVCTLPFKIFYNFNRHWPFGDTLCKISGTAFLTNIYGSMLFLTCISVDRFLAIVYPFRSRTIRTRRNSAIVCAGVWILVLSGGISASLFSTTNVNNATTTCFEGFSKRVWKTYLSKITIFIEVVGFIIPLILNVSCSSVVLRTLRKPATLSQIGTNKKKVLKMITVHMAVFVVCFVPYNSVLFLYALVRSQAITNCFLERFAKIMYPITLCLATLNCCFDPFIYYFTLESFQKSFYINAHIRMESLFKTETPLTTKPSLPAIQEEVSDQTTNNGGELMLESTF

In the case of octadecenyl thiophosphate [OTP], the concentration giving a half-maximal response (EC50) on LPA3 (agonist, Ca2+ mobilization) stood at 0.297 µM; at LPA4, 2 µM; on LPA5 it was 0.003 µM.

For the molecule `O=C(O)c1cc(Cl)c(Cl)cc1C(=O)Nc1ccc2c(c1)C(=O)c1ccccc1-2` [Compound H2L5547924], at LPA3, the “LPA3 Imax (%)” value came out at 66%. Further, the “inhibition of LPA4 Ca2+ response” value on LPA4 (10 μM, ~EC75 LPA 18:1) is “partially inhibited”. Also, the “LPA4 Imax (%)” value at LPA4 (inhibition by 10 μM compound of ~EC75 LPA 18:1 Ca2+ response) is listed as 51%. In addition, the half-maximal effective concentration (EC50) on LPA5 is greater than 10 µM.

With `O=C(O)c1ccccc1C(=O)Nc1ccc2c(c1)C(=O)c1ccccc1C2=O` [Compound H2L5828102], on LPA3, the “inhibition of LPA3 Ca2+ response” value is on record as “fully inhibited” and the “LPA3 Imax (%)” value stood at 100%. Also, the Ki at LPA3 (antagonist, Ca2+ mobilization, read-out: LPA3 K) stood at 1.5 µM. Also, the EC50 at LPA4 was greater than 10 µM. The concentration giving a half-maximal response (EC50) at LPA5 was greater than 10 µM.

For `O=C(O)c1ccccc1C(=O)Nc1ccc2c(c1)C(=O)c1ccccc1-2` [NSC12404], on LPA3, the “inhibition of LPA3 Ca2+ response” value is “inhibited LPA3” and the “LPA3 Imax (%)” value stood at 61%. The EC50 on LPA4 was greater than 10 µM. The EC50 on LPA5 is greater than 10 µM.

In the case of `O=C(O)c1ccccc1SCCCN1C(=O)c2cccc3cccc(c23)C1=O` [GRI977143], on LPA3, the “inhibition of LPA3 Ca2+ response” value is on record as “inhibited LPA3” and the “LPA3 Imax (%)” value is recorded as 55%. Further, the EC50 at LPA4 was greater than 10 µM.

The EC50 is the concentration giving half of the maximal effect.
